Measured values as given in ChEMBL document CHEMBL3885881, “DrugMatrix”.

Species: Rattus norvegicus
Test: DrugMatrix - Regimen: Daily Repeat
Assay type: toxicity, organism-based, Sprague-Dawley
Design: regimen Daily Repeat, gender Male, age 6-8 weeks
Details: in vivo, po, route oral GAVAGE, vehicle 100 % WATER; for ABSOLUTE BASOPHIL / ABSOLUTE EOSINOPHIL / ABSOLUTE LYMPHOCYTE / ABSOLUTE MONOCYTE / ABSOLUTE SEGMENTED NEUTROPHIL / BASOPHIL / EOSINOPHIL / ERYTHROCYTE COUNT / HEMATOCRIT / HEMOGLOBIN / LEUKOCYTE COUNT / LYMPHOCYTE / MEAN CORPUSCULAR HEMOGLOBIN / MEAN CORPUSCULAR HEMOGLOBIN CONCENTRATION / MEAN CORPUSCULAR VOLUME / MONOCYTE / NEUTROPHIL / NUCLEATED RED BLOOD CELLS / PLATELET COUNT: tissue Blood; for ALANINE AMINOTRANSFERASE / ALBUMIN / ALKALINE PHOSPHATASE / ASPARTATE AMINOTRANSFERASE / BLOOD UREA NITROGEN / CARBON DIOXIDE / CHLORIDE / CHOLESTEROL / CREATINE PHOSPHOKINASE / CREATININE / GLUCOSE / LACTATE DEHYDROGENASE / LIPASE / PHOSPHORUS / POTASSIUM / SODIUM / TOTAL BILIRUBIN / TOTAL PROTEIN / URIC ACID: tissue Plasma
[1] = 10 mg/kg, 120 h, dose level Low, time 5 day
[2] = 900 mg/kg, 72 h, dose level High, time 3 day
[3] = 900 mg/kg, 120 h, dose level High, time 5 day

CC(C)(C)NC[C@H](O)COc1nsnc1N1CCOCC1 [TIMOLOL]
ABSOLUTE BASOPHIL [1]: 0 CELLS/uL | ABSOLUTE EOSINOPHIL [1]: 115.33 CELLS/uL | ABSOLUTE LYMPHOCYTE [1]: 10711.67 CELLS/uL | ABSOLUTE MONOCYTE [1]: 97.67 CELLS/uL | ABSOLUTE SEGMENTED NEUTROPHIL [1]: 1075.33 CELLS/uL | BASOPHIL [1]: 0% | EOSINOPHIL [1]: 0.67% | ERYTHROCYTE COUNT [1]: 5.23 x10E6/uL | HEMATOCRIT [1]: 33.1% | HEMOGLOBIN [1]: 12.83 G/DL | LEUKOCYTE COUNT [1]: 12 x10E3/uL | LYMPHOCYTE [1]: 90% | MEAN CORPUSCULAR HEMOGLOBIN [1]: 24.53 pg | MEAN CORPUSCULAR HEMOGLOBIN CONCENTRATION [1]: 38.77 G/DL | MEAN CORPUSCULAR VOLUME [1]: 63.27 fL | MONOCYTE [1]: 0.67% | NEUTROPHIL [1]: 8.67% | NUCLEATED RED BLOOD CELLS [1]: 0 /100WBC | PLATELET COUNT [1]: 1050 x10E3/uL | ALANINE AMINOTRANSFERASE [1]: 51 u/L | ALBUMIN [1]: 4.03 G/DL | ALKALINE PHOSPHATASE [1]: 411.33 u/L | ASPARTATE AMINOTRANSFERASE [1]: 79.33 u/L | BLOOD UREA NITROGEN [1]: 15 mg/dL | CARBON DIOXIDE [1]: 29 mmol/L | CHLORIDE [1]: 101.33 MEQ/L | CHOLESTEROL [1]: 71 mg/dL | CREATINE PHOSPHOKINASE [1]: 333 u/L | CREATININE [1]: 0.16 mg/dL | GLUCOSE [1]: 180.33 mg/dL | LACTATE DEHYDROGENASE [1]: 129.33 u/L | LIPASE [1]: 9 u/L | PHOSPHORUS [1]: 11.93 mg/dL | POTASSIUM [1]: 5.38 MEQ/L | SODIUM [1]: 144.33 MEQ/L | TOTAL BILIRUBIN [1]: 0.13 mg/dL | TOTAL PROTEIN [1]: 6.1 G/DL | URIC ACID [1]: 0.73 mg/dL | ABSOLUTE BASOPHIL [2]: 0 CELLS/uL | ABSOLUTE EOSINOPHIL [2]: 0 CELLS/uL | ABSOLUTE LYMPHOCYTE [2]: 11176.67 CELLS/uL | ABSOLUTE MONOCYTE [2]: 84.33 CELLS/uL | ABSOLUTE SEGMENTED NEUTROPHIL [2]: 872.33 CELLS/uL | BASOPHIL [2]: 0% | EOSINOPHIL [2]: 0% | ERYTHROCYTE COUNT [2]: 5.11 x10E6/uL | HEMATOCRIT [2]: 32.53% | HEMOGLOBIN [2]: 12.93 G/DL | LEUKOCYTE COUNT [2]: 12.13 x10E3/uL | LYMPHOCYTE [2]: 92% | MEAN CORPUSCULAR HEMOGLOBIN [2]: 25.27 pg | MEAN CORPUSCULAR HEMOGLOBIN CONCENTRATION [2]: 39.77 G/DL | MEAN CORPUSCULAR VOLUME [2]: 63.67 fL | MONOCYTE [2]: 0.67% | NEUTROPHIL [2]: 7.33% | NUCLEATED RED BLOOD CELLS [2]: 0.33 /100WBC | PLATELET COUNT [2]: 1179.33 x10E3/uL | ALANINE AMINOTRANSFERASE [2]: 48 u/L | ALBUMIN [2]: 3.73 G/DL | ALKALINE PHOSPHATASE [2]: 389 u/L | ASPARTATE AMINOTRANSFERASE [2]: 98 u/L | BLOOD UREA NITROGEN [2]: 12.67 mg/dL | CARBON DIOXIDE [2]: 29.33 mmol/L | CHLORIDE [2]: 101.67 MEQ/L | CHOLESTEROL [2]: 77.33 mg/dL | CREATINE PHOSPHOKINASE [2]: 901.67 u/L | CREATININE [2]: 0.28 mg/dL | GLUCOSE [2]: 148.67 mg/dL | LACTATE DEHYDROGENASE [2]: 189.33 u/L | LIPASE [2]: 11.33 u/L | PHOSPHORUS [2]: 13.97 mg/dL | POTASSIUM [2]: 7.3 MEQ/L | SODIUM [2]: 143.43 MEQ/L | TOTAL BILIRUBIN [2]: 0.17 mg/dL | TOTAL PROTEIN [2]: 5.43 G/DL | URIC ACID [2]: 1.67 mg/dL | ABSOLUTE BASOPHIL [3]: 0 CELLS/uL | ABSOLUTE EOSINOPHIL [3]: 114.33 CELLS/uL | ABSOLUTE LYMPHOCYTE [3]: 9946 CELLS/uL | ABSOLUTE MONOCYTE [3]: 153 CELLS/uL | ABSOLUTE SEGMENTED NEUTROPHIL [3]: 1220 CELLS/uL | BASOPHIL [3]: 0% | EOSINOPHIL [3]: 1% | ERYTHROCYTE COUNT [3]: 5.75 x10E6/uL | HEMATOCRIT [3]: 36.17% | HEMOGLOBIN [3]: 13.83 G/DL | LEUKOCYTE COUNT [3]: 11.43 x10E3/uL | LYMPHOCYTE [3]: 87% | MEAN CORPUSCULAR HEMOGLOBIN [3]: 24.07 pg | MEAN CORPUSCULAR HEMOGLOBIN CONCENTRATION [3]: 38.27 G/DL | MEAN CORPUSCULAR VOLUME [3]: 62.97 fL | MONOCYTE [3]: 1.33% | NEUTROPHIL [3]: 10.67% | NUCLEATED RED BLOOD CELLS [3]: 0 /100WBC | PLATELET COUNT [3]: 1330.33 x10E3/uL | ALANINE AMINOTRANSFERASE [3]: 48 u/L | ALBUMIN [3]: 3.63 G/DL | ALKALINE PHOSPHATASE [3]: 402.67 u/L | ASPARTATE AMINOTRANSFERASE [3]: 107.33 u/L | BLOOD UREA NITROGEN [3]: 14.33 mg/dL | CARBON DIOXIDE [3]: 23.67 mmol/L | CHLORIDE [3]: 103.67 MEQ/L | CHOLESTEROL [3]: 78.67 mg/dL | CREATINE PHOSPHOKINASE [3]: 707.33 u/L | CREATININE [3]: 0.14 mg/dL | GLUCOSE [3]: 142 mg/dL | LACTATE DEHYDROGENASE [3]: 252.33 u/L | LIPASE [3]: 10 u/L | PHOSPHORUS [3]: 11.6 mg/dL | POTASSIUM [3]: 6.41 MEQ/L | SODIUM [3]: 144.37 MEQ/L | TOTAL BILIRUBIN [3]: 0.17 mg/dL | TOTAL PROTEIN [3]: 5.27 G/DL | URIC ACID [3]: 1.5 mg/dL
